Values of other authors as cited in patent publication US10172913B2, “Orally disintegrating solid pharmaceutical dosage unit containing a partus control substance” (Oxytone Bioscience B.V., priority 2014, dated 2019).
Bridge positions count the residues as written; N and C are the ends. Square brackets hold non-standard residues; d marks the D form. Peptide text beside a SMILES is read from it. Orn = NCCC[C@H](N)C(=O)O; Mpa = O=C(O)CCS

What was measured:
[1] = in vivo
[2] = lyophilized

SMILES	half-life in the blood [1]	time stable at room temperature [2] [weeks]
CC[C@H](C)[C@@H]1NC(=O)[C@H](Cc2ccc(O)cc2)NC(=O)[C@@H](N)CSSC[C@@H](C(=O)N2CCC[C@H]2C(=O)N[C@@H](CC(C)C)C(=O)NCC(N)=O)NC(=O)[C@H](CC(N)=O)NC(=O)[C@H](CCC(N)=O)NC1=O [Oxytocin, cysteine-tyrosine-isoleucine-glutamine-asparagine-cysteine-proline-leucine-glycine-amide]	about three	
CCOc1ccc(C[C@H]2NC(=O)CCSSC[C@@H](C(=O)N3CCC[C@H]3C(=O)N[C@@H](CCCN)C(=O)NCC(N)=O)NC(=O)[C@H](CC(N)=O)NC(=O)[C@H]([C@@H](C)O)NC(=O)[C@H]([C@@H](C)CC)NC2=O)cc1 [atosiban] ([Mpa][dY](Et)ITNCP[Orn]G-NH2; disulfide 1-6)		3
